Measurements: US10526345B2, “Compounds as GPR119 agonists” (Mankind Pharma Ltd., priority 2016, dated 2020)

What was measured:
[1] = test system: Male C57BL/6 mice; test: Oral glucose tolerance test in C57BL/6 mice; format: in vivo; conditions: 3 mpk and 10 mpk, glucose 2 g/kg
Method: (§1) Male C57BL/6 mice (8-10 weeks) were grouped based on basal glucose levels and animals were fasted for 16 hours. Glucose level of each animal was estimated in blood collected from tail vein before animals were dosed orally with 0.5% Tween 80 and 0.5% NaCMC (vehicle control) and compounds at 3 and 10 mpk (n=5). After 30 minutes of compound dosing, blood glucose was again estimated and 2 g/kg/10 ml (20%) of Glucose solution was administered orally to all the animals. Blood glucose was estimated at 15, 30, 60, 90 and 120 minutes time points after glucose administration. Accu-Check active blood glucose meter was utilised for estimation of blood from tail vein.
Glucose reduction observed in animals treated with compounds of present invention is represented in terms of % AUC reduction. A greater glucose reduction in oral glucose tolerance test indicates the compound's efficacy in this rodent species.

[2] = test system: Male SD rats; test: Oral glucose tolerance test in Sprague-Dawley rats; format: in vivo; conditions: 3 mpk and 10 mpk, glucose 2 g/kg
Method: as §1, with “SD rats” for “C57BL/6 mice”
Glucose reduction observed in animals treated with GPR119 agonists is represented in terms of % AUC reduction. A greater glucose reduction in oral glucose tolerance test indicates the compound's efficacy in this rodent species.

[3] = biological target: T1, hGPR119 (Homo sapiens, UniProt Q8TDV5); test: In vitro cyclic AMP assay (Cisbio dynamic 2 HTRF kit) in CHO-hGPR119 cells; format: cell-based; conditions: cAMP; for activation at 1 µM: 1 h, compound at 1 μM, 60 min, read-out: Induction (% induction at 1 μM)
T1 construct: expressed in transfected cells; host or cells: CHO
T1 sequence (Q8TDV5 1-335): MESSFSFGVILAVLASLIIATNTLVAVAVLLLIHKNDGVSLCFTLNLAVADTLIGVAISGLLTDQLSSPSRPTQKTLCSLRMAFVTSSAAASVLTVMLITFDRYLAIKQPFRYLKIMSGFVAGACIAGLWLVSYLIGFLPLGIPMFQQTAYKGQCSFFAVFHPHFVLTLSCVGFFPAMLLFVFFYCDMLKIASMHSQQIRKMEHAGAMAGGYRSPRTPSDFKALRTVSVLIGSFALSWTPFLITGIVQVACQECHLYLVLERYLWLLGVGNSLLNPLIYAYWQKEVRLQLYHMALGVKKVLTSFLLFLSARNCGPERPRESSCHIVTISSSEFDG

activation at 1 µM [3] [%] | EC50 [3] [nM] | SMILES | glucose reduction (% AUC reduction) in oral glucose tolerance test [1] | glucose reduction (% AUC reduction) in oral glucose tolerance test [2]
82 | < 25 | CC(C)c1noc(N2CCC([C@H](C)Oc3nc4ccc(-c5ccc(S(C)(=O)=O)nc5)nc4s3)CC2)n1 [Compound 1082, (S)-3-isopropyl-5-(4-(1-((5-(6-(methylsulfonyl)pyridin-3-yl)thiazolo[5,4-b]pyridin-2-yl)oxy)ethyl)piperidin-1-yl)-1,2,4-oxadiazole] | significant dose dependent glucose reduction | significant dose dependent glucose reduction
75 | < 25 | CCc1cnc(N2CCC([C@H](C)Oc3nc4ccc(-c5ccc(S(C)(=O)=O)nc5)nc4s3)CC2)nc1 [Compound 1106, (S)-2-(1-(1-(5-ethylpyrimidin-2-yl)piperidin-4-yl)ethoxy)-5-(6-(methylsulfonyl)pyridin-3-yl)thiazolo[5,4-b]pyridine] | significant dose dependent glucose reduction | significant dose dependent glucose reduction
75 | < 25 | CC(C)c1noc(N2CCC([C@H](C)Oc3nc4ccc(-c5cnc(Cl)nc5)nc4s3)CC2)n1 [Compound 1119, (S)-5-(4-(1-((5-(2-chloropyrimidin-5-yl)thiazolo[5,4-b]pyridin-2-yl)oxy)ethyl)piperidin-1-yl)-3-isopropyl-1,2,4-oxadiazole] | significant dose dependent glucose reduction | significant dose dependent glucose reduction
40 | – | CC(Oc1nc2ccc(-c3ccc(S(C)(=O)=O)cc3)nc2s1)C1CCN(c2ncc(Cl)cn2)CC1 (stereo not drawn) [Compound 1120, 2-(1-(1-(5-chloropyrimidin-2-yl)piperidin-4-yl)ethoxy)-5-(4-(methylsulfonyl)phenyl)thiazolo[5,4-b]pyridine] | significant dose dependent glucose reduction | –
86 | < 25 | CCc1cnc(N2CCC([C@H](C)Oc3nc4ccc(-c5cnc(Cl)nc5)nc4s3)CC2)nc1 [Compound 1135, 2-((S)-1-(1-(5-ethylpyrimidin-2-yl)piperidin-4-yl)ethoxy)-5-(2-chloropyrimidin-5-yl)thiazolo[5,4-b]pyridine] | significant dose dependent glucose reduction | significant dose dependent glucose reduction
81 | < 25 | CCCc1cnc(N2CCC([C@H](C)Oc3nc4ccc(-c5ccc(S(C)(=O)=O)nc5)nc4s3)CC2)nc1 [Compound 1099, (S)-5-(6-(methylsulfonyl)pyridin-3-yl)-2-(1-(1-(5-propylpyrimidin-2-yl)piperidin-4-yl)ethoxy)thiazolo[5,4-b]pyridine] | significant dose dependent glucose reduction | significant dose dependent glucose reduction
82 | 100 to 500 | C[C@H](Oc1nc2ccc(-c3ccc(S(C)(=O)=O)nc3)nc2s1)C1CCN(c2ncc(Cl)cn2)CC1 [Compound 1136, 2-((S)-1-(1-(5-chloropyrimidin-2-yl)piperidin-4-yl)ethoxy)-5-(6-(methylsulfonyl)pyridin-3-yl)thiazolo[5,4-b]pyridine] | – | –
48 | – | CNS(=O)(=O)c1ccc(-c2ccc3nc(OC(C)C4CCN(c5nc(C(C)C)no5)CC4)sc3n2)cc1 (stereo not drawn) [Compound 1061, 4-(2-(1-(1-(3-isopropyl-1,2,4-oxadiazol-5-yl)piperidin-4-yl)ethoxy)thiazolo[5,4-b]pyridin-5-yl)-N-methylbenzenesulfonamide] | – | –
84 | 25 to 50 | CCc1cnc(N2CCC([C@H](C)Oc3nc4ccc(-c5ccnc(F)c5)nc4s3)CC2)nc1 [Compound 1104, (S)-2-(1-(1-(5-ethylpyrimidin-2-yl)piperidin-4-yl)ethoxy)-5-(2-fluoropyridin-4-yl)thiazolo[5,4-b]pyridine] | significant dose dependent glucose reduction | –
65 | – | C[C@H](Oc1nc2ccc(-c3ccc(S(C)(=O)=O)nc3)nc2s1)C1CCN(c2nc(C(F)(F)F)no2)CC1 (stereo in doubt) [Compound 1145, 2-(1-(1-(3-(trifluoromethyl)-1,2,4-oxadiazol-5-yl)piperidin-4-yl)ethoxy)-5-(6-(methylsulfonyl)pyridin-3-yl)thiazolo[5,4-b]pyridine] | – | –
47 | – | COCC(Oc1nc2ccc(-c3ccc(S(C)(=O)=O)cc3)nc2s1)C1CCN(c2nc(C(C)C)no2)CC1 (stereo not drawn) [Compound 1036, 3-isopropyl-5-(4-(2-methoxy-1-((5-(4-(methylsulfonyl)phenyl)thiazolo[5,4-b]pyridin-2-yl)oxy)ethyl)piperidin-1-yl)-1,2,4-oxadiazole] | – | –
13 | – | CC(C)c1noc(C2CCC(C(C)Oc3nc4ccc(-c5ccc(S(C)(=O)=O)cc5)nc4s3)CC2)n1 (stereo not drawn) [Compound 1105, 3-isopropyl-5-(4-(1-((5-(4-(methylsulfonyl)phenyl)thiazolo[5,4-b]pyridin-2-yl)oxy)ethyl)cyclohexyl)-1,2,4-oxadiazole] | – | –
62 | – | CC(C)c1noc(N2CCC(C(C)Oc3nc4cnc(-c5ccc(S(C)(=O)=O)nc5)nc4s3)CC2)n1 (stereo not drawn) [Compound 1162, 2-(1-(1-(3-isopropyl-1,2,4-oxadiazol-5-yl)piperidin-4-yl)ethoxy)-5-(6-(methylsulfonyl)pyridin-3-yl)thiazolo[5,4-d]pyrimidine] | – | –

SMILES | activation at 1 µM [3] [%] | EC50 [3] [nM] | glucose reduction (% AUC reduction) in oral glucose tolerance test [1] | glucose reduction (% AUC reduction) in oral glucose tolerance test [2]
CS(=O)(=O)c1ccc(-c2ccc3nc(C4=CCN(CCO)CC4)sc3n2)cc1 [Compound 1015, 2-(4-(5-(4-(methylsulfonyl)phenyl)thiazolo[5,4-b]pyridin-2-yl)-5,6-dihydropyridin-1(2H)-yl)ethanol] | 2 | – | – | –
